Test results as given in the CheMixHub viscosity set.

Assay: xn = mol fraction of the nth substance listed

CC(N)C(=O)[O-].CCCCn1cc[n+](C)c1 + O
Details	viscosity [mPa·s]
318.15 K, 100.3 kPa, x1 = 0.01781	1.114

COC(C)=O + O
298.15 K, 101 kPa
Details	viscosity [mPa·s]
x1 = 0.007776	0.9505
x1 = 0.01059	0.9711
x1 = 0.01834	1.021
x1 = 0.02351	1.05
x1 = 0.0294	1.087
x1 = 0.03745	1.118
x1 = 0.03898	1.127
x1 = 0.04509	1.146
x1 = 0.7729	0.4311
x1 = 0.8213	0.4084
x1 = 0.8787	0.3879
x1 = 0.9325	0.372

COC(C)=O + O=C1CCCO1
298.15 K, 101.33 kPa
Details	viscosity [mPa·s]
x1 = 0.0471	1.585
x1 = 0.1055	1.467
x1 = 0.1514	1.365
x1 = 0.2015	1.254
x1 = 0.2517	1.16
x1 = 0.293	1.091
x1 = 0.4005	0.902
x1 = 0.4297	0.858
x1 = 0.4981	0.746
x1 = 0.5486	0.678
x1 = 0.5907	0.632
x1 = 0.701	0.52
x1 = 0.745	0.485
x1 = 0.7921	0.446
x1 = 0.8471	0.416
x1 = 0.9005	0.378
x1 = 0.9509	0.369

COCCOC + O=Cc1ccccc1
298.15 K, 101 kPa
Details	viscosity [mPa·s]
x1 = 0.1157	1.225
x1 = 0.2274	1.082
x1 = 0.3354	0.954
x1 = 0.4398	0.841
x1 = 0.5408	0.741
x1 = 0.6385	0.655
x1 = 0.7332	0.58
x1 = 0.8249	0.515
x1 = 0.9138	0.458

OCCNCCO + O=S1(=O)CCCC1
viscosity [mPa·s], 101 kPa
Details	x2 = 0.0999	x2 = 0.2999	x2 = 0.4687	x2 = 0.6712	x2 = 0.8322
303.15 K	262.7	125.4	63.49	14.99	12.62
323.15 K	73.14	32.73	15.33	9.455	7.362

COCCOC + O=[N+]([O-])c1ccccc1
298.15 K, 101 kPa
Details	viscosity [mPa·s]
x1 = 0.1318	1.472
x1 = 0.2546	1.27
x1 = 0.3693	1.087
x1 = 0.4766	0.929
x1 = 0.5774	0.793
x1 = 0.672	0.688
x1 = 0.7612	0.599
x1 = 0.8453	0.523
x1 = 0.9248	0.462

O=C(O)c1ccccc1 + O=[N+]([O-])c1ccccc1
viscosity [mPa·s], 101 kPa
Details	x1 = 0.09745	x1 = 0.108	x1 = 0.139	x1 = 0.1489	x1 = 0.175
308.15 K	1.746	–	–	–	–
313.15 K	1.626	1.626	1.675	1.746	1.746
318.15 K	1.503	–	–	1.611	–
323.15 K	1.397	–	–	1.492	–

c1ccc2ncccc2c1 + OCC(F)(F)F
viscosity [mPa·s], 101.33 kPa
Details	298.15 K	303.15 K	308.15 K	313.15 K	318.15 K	323.15 K
x1 = 0.16	2.34	2.05	1.84	1.62	1.46	1.32
x1 = 0.34	2.91	2.57	2.27	2.04	1.83	1.65
x1 = 0.54	3.14	2.79	2.46	2.21	2	1.82
x1 = 0.76	3.17	2.8	2.49	2.25	2.05	1.87

COc1ccccc1N + OCCCl
viscosity [mPa·s], 100 kPa
Details	x1 = 0.1041	x1 = 0.2448	x1 = 0.3401	x1 = 0.4623	x1 = 0.5621	x1 = 0.6825	x1 = 0.7612	x1 = 0.8484	x1 = 0.9217
303.15 K	2.83	3.17	3.4	3.69	3.92	4.2	4.38	4.58	4.75
308.15 K	2.5	2.83	3.05	3.33	3.55	3.82	4	4.19	4.35
313.15 K	2.11	2.44	2.67	2.96	3.19	3.47	3.65	3.85	4.01
318.15 K	1.82	2.15	2.38	2.66	2.9	3.17	3.35	3.55	3.71

COC(C)=O + OCCO
viscosity [mPa·s], 101.33 kPa
Details	x2 = 0.1014	x2 = 0.1953	x2 = 0.2981	x2 = 0.3974	x2 = 0.5029	x2 = 0.5992	x2 = 0.6997	x2 = 0.799	x2 = 0.9639
298.15 K	0.543	0.645	0.829	–	1.85	2.329	3.499	5.578	9.086
303.15 K	0.507	0.599	0.756	1.008	1.633	2.026	3.025	4.658	7.673
308.15 K	0.473	0.561	0.701	0.921	1.439	1.781	2.643	3.989	6.317

OCCNCCO + OCCO
298 K, 101.3 kPa
Details	viscosity [mPa·s]
x1 = 0.0049	17.27
x1 = 0.01	17.72
x1 = 0.044	20.95
x1 = 0.07152	25.16
x1 = 0.09514	28.03
x1 = 0.1331	37.15

COc1ccccc1N + OCCc1ccccc1
viscosity [mPa·s], 100 kPa
Details	x1 = 0.0957	x1 = 0.1852	x1 = 0.2904	x1 = 0.3921	x1 = 0.4911	x1 = 0.6027	x1 = 0.7023	x1 = 0.8005	x1 = 0.8904
303.15 K	8.66	8.29	7.87	7.45	7.04	6.58	6.17	5.76	5.38
308.15 K	6.95	6.71	6.43	6.16	5.9	5.6	5.33	5.06	4.82
313.15 K	5.91	5.75	5.55	5.36	5.18	4.97	4.77	4.58	4.41
318.15 K	4.89	4.8	4.69	4.58	4.47	4.35	4.23	4.12	4.02

OC[C@H](O)C(O)[C@@H](O)CO + OC[C@@H](O)[C@@H](O)CO
101 kPa, x1 = 0.36
Details	viscosity [mPa·s]
293.2 K	1329000
298.2 K	611700
303.2 K	294200
308.1 K	154700
313.2 K	79520
318.2 K	42740
323 K	23480

OC[C@H](O)C(O)[C@@H](O)CO + OC[C@@H](O)[C@H](O)[C@@H](O)CO
Details	viscosity [mPa·s]
313 K, 101 kPa, x2 = 0.56	42740
